In this test the test system is red blood cells. The test can be described thus: Fluorescently labeled glucose uptake into red blood cells (Glucose Uptake Assay Kit-Green). Format: cell-based, human. The note with it: for uptake of fluorescently labeled glucose / fluorescence in red blood cells (in words): concentrations as in Table 5; for Fluorescence intensity of fluorescently labeled glucose uptake into red blood cells: control (PBS(−)) 613.5. Here is the method: Blood collected in the blood collection tube B from a volunteer subject was centrifuged at 3000 rpm for 5 minutes within 10 minutes, and plasma was discarded to obtain fresh red blood cells. The red blood cells were washed with PBS(−) and used for the following tests (washed red blood cells).
The test substance was dissolved in the amount described in Table 5 with respect to 1 mL of PBS(−). On the other hand, 5 μL of washed red blood cells immersed in PBS(−) and allowed to stand for about 15 minutes were taken out into a test tube, 150 μL each of a test substance solution was added thereto, and this was heated at 37° C. for 15 minutes. Then, 2 μL of a dissolved probe reagent in a glucose uptake assay kit (Glucose Uptake Assay Kit-Green, Dojindo Laboratories Co., Ltd.) was added and heated at 37° C. for 45 minutes. The probe reagent was fluorescently labeled glucose (fluorescently labeled glucose), and a powdered reagent dissolved in 20 μL of DMSO was used.
After the immersion in the reagents of the glucose uptake assay was completed, red blood cells were washed 3 times with 150 μL of a cooled 50-fold diluted WI solution (prepared by diluting the solution provided with the assay reagent 50-fold with PBS(−) at 4° C.), and 150 μL of a cooled 50-fold diluted WI solution was further added and stirred, and then 20 μL of the solution was dropped onto a glass slide and spread over the slide. Slides were photographed with fluorescence microscope.
The remaining red blood cells were centrifuged to discard the supernatant, and 125 μL of water for injection was added to the remaining lower red blood cells to cause hemolysis. The fluorescence intensity of 100 μL of the supernatant obtained by centrifugation was measured using a microplate reader (MTP-800Lab, Corona Electric Co., Ltd.). The measurement conditions were an excitation light wavelength of […] and a measurement fluorescence wavelength of […].

Structures are written as SMILES. Entries after “also recorded” stand apart in the source; their conditions may differ.

With `[F-].[Na+]` [Sodium fluoride, sodium fluoride], the “uptake of fluorescently labeled glucose / fluorescence in red blood cells (in words)” value is on record as “the degree of suppression of uptake was much lower than that of inosine”. Also, for the setting “test substance 1.5 mg/mL in PBS(−)”, the “Fluorescence intensity of fluorescently labeled glucose uptake into red blood cells” value (“Fluorescence intensity” for short) came to 255.1.
Turning to `OC[C@H]1O[C@@H](n2cnc3c(O)ncnc32)[C@H](O)[C@@H]1O` [Inosine, inosine], the “uptake of fluorescently labeled glucose / fluorescence in red blood cells (in words)” value is recorded as “fluorescence in red blood cells was hardly observed; also recorded: strong inhibitory effect on the uptake of glucose in red blood cells”. The “Fluorescence intensity” value (test substance 2 mg/mL in PBS(−)) is given as 6.4.
On to `Nc1ncnc2c1ncn2[C@@H]1O[C@H](COP(=O)(O)OP(=O)(O)OP(=O)(O)O)[C@@H](O)[C@H]1O` [ATP, adenosine triphosphate], for which the “uptake of fluorescently labeled glucose / fluorescence in red blood cells (in words)” value is “the degree of suppression of uptake was much lower than that of inosine”. Under “test substance 1.25 mg/mL in PBS(−)”, the “Fluorescence intensity” value is 163.3.

(Values after US20260177565A1, “INHIBITOR FOR GLUCOSE UPTAKE INTO RED BLOOD CELLS, SUPPRESSANT FOR GLUCOSE CONCENTRATION REDUCTION IN BLOOD-COLLECTING TUBE, AND BLOOD-COLLECTING TUBE INCLUDING SAME” (THE UNIVERSITY OF TOKYO, priority 2022, published 2026).)
